According to ChEMBL document CHEMBL3046261, “Efficient entry to diversely functionalized spirooxindoles from isatin and their biological activity” (Med Chem Res, 2013):
≈ marks a conversion by molar mass, not a printed value.

Assay: Cytotoxicity against Homo sapiens (human) U87 cells by MTT assay
Format: functional, cell-based, U-87MG ATCC
Conditions: U-87 MG

## N#CC1=C(N)Oc2[nH]c(=S)[nH]c(=O)c2C12C(=O)N(CCCCBr)c1ccccc12 (configuration not stated)
  IC50: 78 µg/mL (≈ 164 µM)

## N#CC1=C(N)Oc2[nH]c(=O)[nH]c(=O)c2C12C(=O)N(CCCCCCBr)c1ccccc12 (configuration not stated)
  IC50: 78 µg/mL (≈ 160 µM)

## N#CC1=C(N)Oc2[nH]c(=O)[nH]c(=S)c2C12C(=O)N(CCCCCCCCCCBr)c1ccccc12 (configuration not stated)
  IC50: 39 µg/mL (≈ 69.8 µM)

## O=C1C(=O)N(CCCCBr)c2ccccc21
  IC50: 19 µg/mL (≈ 67.3 µM)

## O=C1C(=O)N(CCBr)c2ccccc21
  IC50: 4.9 µg/mL (≈ 19.3 µM)

## N#CC1=C(N)Oc2c(c(=O)oc3ccccc23)C12C(=O)Nc1ccc(Br)cc12 (configuration not stated)
  IC50: 78 µg/mL (≈ 179 µM)

## CC1(C)CC(=O)C2=C(C1)OC(N)=C(C#N)C21C(=O)N(CCCCCCCCCCBr)c2ccccc21 (configuration not stated)
  IC50: 2.5 µg/mL (≈ 4.51 µM)

## Cc1nn(-c2ccccc2)c2c1C1(C(=O)Nc3ccc(Br)cc31)C(C#N)=C(N)O2 (configuration not stated)
  IC50: 156 µg/mL (≈ 348 µM)

## N#CC1=C(N)Oc2c(c(=O)oc3ccccc23)C12C(=O)N(CCCCBr)c1ccccc12 (configuration not stated)
  IC50: 78 µg/mL (≈ 158 µM)

## O=C1C(=O)N(CCCCCCBr)c2ccccc21
  IC50: 19 µg/mL (≈ 61.3 µM)

## O=NN(CCCl)C(=O)NCCCl [CARMUSTINE]
  IC50: 3.9 µg/mL (≈ 18.2 µM)

## N#CC1=C(N)Oc2c(c(=O)oc3ccccc23)C12C(=O)N(CCCCCCCCCCBr)c1ccccc12 (configuration not stated)
  IC50: 39 µg/mL (≈ 67.7 µM)

## N#CC1=C(N)Oc2c(c(=O)oc3ccccc23)C12C(=O)Nc1ccccc12 (configuration not stated)
  IC50: 78 µg/mL (≈ 218 µM)

## Cc1nn(-c2ccccc2)c2c1C1(C(=O)Nc3ccccc31)C(C#N)=C(N)O2 (configuration not stated)
  IC50: 156 µg/mL (≈ 422 µM)

## Cc1nn(-c2ccccc2)c2c1C1(C(=O)N(CCCBr)c3ccccc31)C(C#N)=C(N)O2 (configuration not stated)
  IC50: 78 µg/mL (≈ 159 µM)

## N#CC1=C(N)Oc2[nH]c(=S)[nH]c(=O)c2C12C(=O)Nc1ccc(Br)cc12 (configuration not stated)
  IC50: 156 µg/mL (≈ 373 µM)

## Cc1nn(-c2ccccc2)c2c1C1(C(=O)N(CCCCCCBr)c3ccccc31)C(C#N)=C(N)O2 (configuration not stated)
  IC50: 78 µg/mL (≈ 146 µM)

## CC1(C)CC(=O)C2=C(C1)OC(N)=C(C#N)C21C(=O)N(CCCBr)c2ccccc21 (configuration not stated)
  IC50: 312 µg/mL (≈ 684 µM)

## N#CC1=C(N)OC2=C(C(=O)CCC2)C12C(=O)N(CCCBr)c1ccccc12 (configuration not stated)
  IC50: 624 µg/mL (≈ 1460 µM)

## CC1(C)CC(=O)C2=C(C1)OC(N)=C(C#N)C21C(=O)N(CCBr)c2ccccc21 (configuration not stated)
  IC50: 78 µg/mL (≈ 176 µM)

## N#CC1=C(N)Oc2[nH]c(=S)[nH]c(=O)c2C12C(=O)N(CCCCCCBr)c1ccccc12 (configuration not stated)
  IC50: 78 µg/mL (≈ 155 µM)

## CC1(C)CC(=O)C2=C(C1)OC(N)=C(C#N)C21C(=O)N(CCCCCCBr)c2ccccc21 (configuration not stated)
  IC50: 78 µg/mL (≈ 156 µM)

## N#CC1=C(N)Oc2[nH]c(=O)[nH]c(=O)c2C12C(=O)N(CCCCBr)c1ccccc12 (configuration not stated)
  IC50: 312 µg/mL (≈ 681 µM)

## N#CC1=C(N)OC2=C(C(=O)CCC2)C12C(=O)Nc1ccc(Br)cc12 (configuration not stated)
  IC50: 312 µg/mL (≈ 808 µM)

## N#CC1=C(N)Oc2[nH]c(=O)[nH]c(=O)c2C12C(=O)Nc1ccccc12 (configuration not stated)
  IC50: 312 µg/mL (≈ 965 µM)

## N#CC1=C(N)Oc2[nH]c(=O)[nH]c(=O)c2C12C(=O)Nc1ccc(Br)cc12 (configuration not stated)
  IC50: 78 µg/mL (≈ 194 µM)

## O=C1C(=O)N(CCCCCCCCCCBr)c2ccccc21
  IC50: 19 µg/mL (≈ 51.9 µM)

## N#CC1=C(N)Oc2[nH]c(=O)[nH]c(=O)c2C12C(=O)N(CCCBr)c1ccccc12 (configuration not stated)
  IC50: 312 µg/mL (≈ 702 µM)

## N#CC1=C(N)Oc2[nH]c(=O)[nH]c(=S)c2C12C(=O)N(CCCBr)c1ccccc12 (configuration not stated)
  IC50: 624 µg/mL (≈ 1360 µM)

## N#CC1=C(N)Oc2[nH]c(=O)[nH]c(=O)c2C12C(=O)N(CCBr)c1ccccc12 (configuration not stated)
  IC50: 78 µg/mL (≈ 181 µM)

## O=C1C(=O)N(CCCBr)c2ccccc21
  IC50: 2.5 µg/mL (≈ 9.32 µM)

## N#CC1=C(N)Oc2[nH]c(=S)[nH]c(=O)c2C12C(=O)N(CCBr)c1ccccc12 (configuration not stated)
  IC50: 78 µg/mL (≈ 175 µM)

## CC1(C)CC(=O)C2=C(C1)OC(N)=C(C#N)C21C(=O)N(CCCCBr)c2ccccc21 (configuration not stated)
  IC50: 156 µg/mL (≈ 332 µM)

## Cc1nn(-c2ccccc2)c2c1C1(C(=O)N(CCCCBr)c3ccccc31)C(C#N)=C(N)O2 (configuration not stated)
  IC50: 39 µg/mL (≈ 77.3 µM)

## N#CC1=C(N)Oc2c(c(=O)oc3ccccc23)C12C(=O)N(CCCCCCBr)c1ccccc12 (configuration not stated)
  IC50: 156 µg/mL (≈ 300 µM)

## N#CC1=C(N)Oc2[nH]c(=O)[nH]c(=O)c2C12C(=O)N(CCCCCCCCCCBr)c1ccccc12 (configuration not stated)
  IC50: 39 µg/mL (≈ 71.9 µM)

## N#CC1=C(N)Oc2c(c(=O)oc3ccccc23)C12C(=O)N(CCCBr)c1ccccc12 (configuration not stated)
  IC50: 156 µg/mL (≈ 326 µM)

## N#CC1=C(N)Oc2c(c(=O)oc3ccccc23)C12C(=O)N(CCBr)c1ccccc12 (configuration not stated)
  IC50: 78 µg/mL (≈ 168 µM)

## Cc1nn(-c2ccccc2)c2c1C1(C(=O)N(CCBr)c3ccccc31)C(C#N)=C(N)O2 (configuration not stated)
  IC50: 78 µg/mL (≈ 164 µM)

## N#CC1=C(N)OC2=C(C(=O)CCC2)C12C(=O)N(CCBr)c1ccccc12 (configuration not stated)
  IC50: 78 µg/mL (≈ 188 µM)

## Cc1nn(-c2ccccc2)c2c1C1(C(=O)N(CCCCCCCCCCBr)c3ccccc31)C(C#N)=C(N)O2 (configuration not stated)
  IC50: 19 µg/mL (≈ 32.3 µM)

## N#CC1=C(N)OC2=C(C(=O)CCC2)C12C(=O)Nc1ccccc12 (configuration not stated)
  IC50: 156 µg/mL (≈ 508 µM)
